Laboratory results as given in patent US5059590A, “Imidazole derivatives, process for production thereof, and use thereof” (Yamasa Shoyu Kabushiki Kaisha, priority 1988, dated 1991).
≈ marks a conversion by molar mass, not a printed value.

Key:
Assay type in all cases: cell-based
PANC-1 = assay: In vitro anti-proliferative activity against human tumor cell lines (PANC-1); conditions: PANC-1, Pancreatic carcinoma, 72 hours
Protocol: (§1) In vitro anti-proliferative activity against human tumor cell lines
(§2) Test Compound: 5-ethynyl-1-β-D-ribofuranosylimidazole-4-carboxamide
(§3) A variety of human tumor cell lines are suspended in media specified according to the species of the cell lines to predetermined cell concentrations as shown in the following Table.
(§4) 1 ml of the resulting cell suspension is seeded into each well of a 24 multi-well plate and incubated in a 5% CO2 -incubator at 37° C. for 24 hours. The culture medium is then replaced by a medium containing no test compound or by an appropriate amount of a serially diluted test compound solution. […] The number of the cells in each well is counted with a Coulter counter (Model ZB, Coulter Electronics), and the growth inhibition percent (%) of the cells at each concentration of a test compound is determined by the following equation: [formula] Tx: Number of the cells in a well containing a test compound as counted upon completion of the incubation (cells/ml) […] Cx: Number of the cells in a well containing no test compound as counted upon completion of the incubation (cells/ml)
(§5) Co: Number of the cells in a well containing no test compound as counted at the initiation of the incubation (cells/ml) […]

[1] = system: Mouse lymphoma cell line P388; assay: In vitro anti-proliferative activity against mouse tumor cell lines, Test Method 2 (P388); conditions: P388, 48 hours, 37° C.
Protocol: (§6) In vitro anti-proliferative activity against mouse tumor cell lines
1. Mouse lymphoma cell line P388 or mouse sarcoma 180 is suspended in RPMI1640 medium supplemented with 10% fetal bovine serum and 2 μM 2-hydroxyethyl disulfide to a concentration of 10^5 cells/ml. Test compounds are serially diluted with the same medium.
2. 0.5 ml of the cell suspension thus obtained is admixed with 0.5 ml of the medium or the test compound solution, and the mixture is incubated in a 5% CO2 -incubator at 37° C. for 48 hours. The incubation is carried out in glass culture tubes.
3. At the end of incubation, the number of the cells in each tube is counted with a Coulter counter (Model ZB, Coulter Electronics), and the growth inhibition percent (%) is calculated from the same equation as in Test Method 1.
4. The IC50 value is obtained as in Test Method I.

QG-56 = assay: In vitro anti-proliferative activity against human tumor cell lines (QG-56); conditions: QG-56, Lung squamous carcinoma, 72 hours
Protocol: as §1, §2, §3, §4, §5

[2] = system: L1210 mouse leukemia cells; assay: In vitro anti-proliferative activity against mouse tumor cell lines, Test Method 1 (L1210); conditions: L1210, 48 hours, 37° C.
Protocol: as §6
1. L1210 mouse leukemia cells are cultivated in RPMI1640 medium supplemented with 10% fetal bovine serum, and the resultant cells are diluted with the same medium in the logarithmic growth phase to a concentration of 1.6×10^5 cells/ml.
2. To test tubes each containing 0.9 ml of the above obtained diluted cell suspension is added 0.1 ml each of test solutions serially diluted with a culture medium or phosphate-buffered saline (PBS), and the mixture is incubated in a 2% CO2 -incubator at 37° C. for 48 hours.
3. After incubation, the number of the cells in each tube is counted with a Coulter counter (Model ZB, Coulter Electronics), and the growth inhibition percent (%) of the cells at each concentration of a test compound is calculated from the following equation: [formula] Tx: Number of the cells in a test tube containing a test compound as counted upon completion of the incubation (cells/ml)
Cx: Number of the cells in a test tube containing no test compound as counted upon completion of the incubation (cells/ml)
Co: Number of the cells in a test tube containing no test compound as counted at the initiation of the incubation (cells/ml)
4. The concentration of the test compound, which causes cell growth inhibition by 50%, is determined by the graph showing the relationship between the growth inhibition percent and the concentration of the test compound, and is defined as 50% inhibitory concentration (IC50).

IC50 (PANC-1): 0.9 µg/mL (≈ 3.37 µM) | IC50 [1]: 0.16 µg/mL (≈ 0.599 µM) | IC50 (QG-56): 0.37 µg/mL (≈ 1.38 µM) | IC50 [2]: 0.18 µg/mL (≈ 0.674 µM)
SMILES: C#Cc1c(C(N)=O)ncn1[C@@H]1O[C@H](CO)[C@@H](O)[C@H]1O [5-ethynyl-1-β-D-ribofuranosylimidazole-4-carboxamide]
